# Measurements published in patent publication US11065296B2, “Antimicrobial peptide, its analog and use” (City University of Hong Kong, priority 2018, dated 2021).
# Peptide text beside a SMILES is read from it.
# Assays:
# E. tarda = assay: Host resistance assay, Experiment Two: pre-injection 2 h before bacteria; assay type: in vivo, Medaka; settings: injected 2 h prior to E. tarda
# Experimental: FIG. 11A is a plot showing the effect of Peptide A on viability of cultured mammalian cells, incubated for 48 h in the presence of Peptide A at different concentrations (μg/ml), as determined by MTT assay. Cell viability represented as peptide treated cell numbers over medium-only control. Statistically significant difference as compared to controls (*: p<0.05, **: p<0.01, n=4). FIG. 11B is a plot showing the ability of Peptide A to protect medaka from lethal challenge of E. tarda ([…]). Medaka was injected with 1 μl of Peptide A (0.68 mM), with 1 μl of E. tarda (10^7 CFU/ml) and Peptide A (0.68 mM) mixture, or with E. tarda alone (1 μl of E. tarda:10^7 CFU/ml). […] 20 fish per group. Log-rank (Mantel-Cox) test was applied for the comparison of survival curves (**: p<0.01).
# The efficacy of the synthesized AMP to protect medaka against infection was characterized using host resistance assays with intraperitoneal (i.p.) injection of bacteria using a micro-injection machine (PV820 Pneumatic PicoPump). In Experiment One, 80 medaka fish were used and divided into four groups (20 fish in each group, male, 6 months): (1) Group 1 was injected with only 1 μl of PBS in each fish; (2) Group 2 was injected with only 1 μl of novel AMP (0.68 mM) in each fish; (3) Group 3 was injected with 1 μl of bacteria (at a titer of 5×10^7 CFU/ml); and (4) bacteria and novel AMP were mixed for 5 min and then 1 μl of the mixture was injected into Group 4 (Bacteria: 5×10^7 CFU/ml, AMP: 0.68 mM). In Experiment Two, 60 fish were used and divided into three groups: each fish was injected with 1 μl of PBS, ampicillin (5.7 mM) or Peptide A (1.36 mM). The fish were anesthetized in MS222 for 30 s before microinjection. After two hours, 1 μl of bacteria (5×10^7 CFU/ml) was injected into the fish. All of the fishes were kept under a static condition of 26° C.±1° C., with 14:10 hrs of a light-dark cycle. The water was replaced every two days. The fish were fed three times each day. The number of dead fish was counted on a daily basis until two weeks after the injections.
# E. coli PQ37 = assay: SOS induction (chromotest); assay type: cell-based
# Experimental: (§1) Results are expressed as 2^(−Delta Delta C (T)). […] Results are expressed as 2^(−Delta Delta C (T)).
# E. coli PQ37 (Genotype: Sfi A and Lac Z fusion, lac Z) was cultured in lysogeny broth (LB) that contained 57.2 μM of ampicillin overnight (37° C.) and subcultured through 20 dilutions on another day so that OD600 equals to 0.2-0.4. PQ37 was incubated in 0.3 ml AMP (3.4 μM) or Piscidin ([…], 3.77 μM) for 2 hours and then re-suspended in the same volume of Z-buffer (Na2HPO4.7H2O 16.1 g/l, NaH2PO4.2H2O 6.24 g/L, KCl 0.75 g/L, MgSO4.7H2O 0.246 g/L and b-mercaptoethanol 0.3% (v/v)) for carrying out a β-galactosidase assay (β-ga) and alkaline phosphatase assay (ap), respectively. The bacteria were lysed with 0.1 ml of 0.1% SDS and 0.15 ml of chloroform. For the β-ga assay, the reaction was started by adding 0.6 ml of ortho-Nitrophenyl-β-galactoside (ONPG; Catalog number 34055, ThermoFisher Scientific) for color development and then stopped with the addition of 2 ml of 1 M NaCO3 solution. For ap acsay, the reaction was started by adding 0.6 ml of para-Nitrophenylphosphate (PNPP; Catalog number 34045, ThermoFisher Scientific) for color development which was then terminated by the addition of 1 ml of 2 M HCl solution and 1 ml of 2 M Tri-HCl to restore the colour. The absorbance was read at 420 nm against a blank without bacteria. The induction factor (IF) was calculated as the ratio R(x)/R(0) (R(x)=β-g/ap determined for the tested peptide; R(0)=β-g/ap determined for the LB). Furacin (antibiotic) and Piscidin were chosen as the controls. Each experiment was performed in triplicate.
# E. coli [1] = assay type: cell-based
# CpxR = assay: Quantitative real-time PCR; assay type: cell-based; settings: E. tarda, Piscidin 7.5 μM, 1 hour
# From the text: as §1
# Each group has 6 biological replicates. […] Gene-specific primers were designed with Primer-BLAST (NCBI).
# E. coli [2] = assay: Antibacterial activities of the peptide analogs (relative OD600); assay type: cell-based
# From the text: FIG. 10 is a plot showing the antibacterial activities of the peptide analogs on E. coli. C-amidation: C-terminus amidated Peptide A; B1: RIILRAQGALKI; B2: IRIILRAQGALK; B3: RIILR. Results expressed as relative OD600 compared to culture medium group (%) (*: p<0.05, **: p<0.01, n=3)
compound,measurement,setting,value
"CC1(C)S[C@@H]2[C@H](NC(=O)[C@H](N)c3ccccc3)C(=O)N2[C@H]1C(=O)O [Ampicillin, reference compound]",initial survival rate,"E. tarda; one day post injection, Peptide A 1.37 mM, Ampicillin 5.7 mM, 1 μl",about 45%
same,effect on E. tarda infection / surviving fish,E. tarda; two weeks after infection,ineffective
NC(=O)N/N=C/c1ccc([N+](=O)[O-])o1 [Furacin],"SOS response (expression of LacZ), positive control","E. coli PQ37; E. coli, different doses of Furacin",dose-dependent expression of LacZ
CC(C)C[C@H](NC(=O)[C@H](Cc1ccc(O)cc1)NC(=O)[C@H](Cc1c[nH]cn1)NC(=O)[C@H](CCCCN)NC(=O)[C@H](CC(C)C)NC(=O)[C@H](C)NC(=O)[C@H](CC(C)C)NC(=O)[C@H](CCCCN)NC(=O)CNC(=O)[C@@H](NC(=O)[C@@H](NC(=O)[C@H](CCCCN)NC(=O)[C@@H](NC(=O)[C@H](CCC(=O)O)NC(=O)[C@H](C)NC(=O)[C@H](CCCCN)NC(=O)[C@H](CCCCN)NC(=O)[C@H](CC(C)C)NC(=O)[C@H](CC(C)C)NC(=O)[C@@H](NC(=O)[C@H](CCCNC(=N)N)NC(=O)[C@H](Cc1c[nH]c2ccccc12)NC(=O)CN)[C@@H](C)O)C(C)C)[C@@H](C)O)C(C)C)C(=O)O [Piscidin] (H-GWRTLLKKAEVKTVGKLALKHYL-OH; N-terminus and C-terminus assumed),MIC for E. coli,E. coli [1],3.77 µM
same,CpxR gene expression,CpxR,no effect
same,SOS response (induction factor),"E. coli PQ37; E. coli PQ37, 120 min, Peptide A 3.4 μM, Piscidin 3.77 μM",no effect on SOS response
"IRIILRAQGALK [Peptide B2, Peptide A with the C-terminal amino acid removed]",antibacterial activity compared with Peptide A,E. coli [2],reduce the antibacterial effect
RIILR [Peptide B3],antibacterial activity compared with Peptide A,E. coli [2],much weaker antibacterial activity
"RIILRAQGALKI [Peptide B1, Peptide A with the N-terminal amino acid removed]",antibacterial activity compared with Peptide A,E. coli [2],reduce the antibacterial effect
